According to patent US11008317B2, “Triazolopyridine inhibitors of myeloperoxidase and/or EPX” (priority 2016, dated 2021):

Key:
myeloperoxidase [1] = target: T1, myeloperoxidase (Homo sapiens, UniProt P05164); experiment: MPO Chlorination Assay (APF Assay); type: biochemical; conditions: potency range class, read-out: APF Assay IC50 value
T1 sequence (P05164 49-745): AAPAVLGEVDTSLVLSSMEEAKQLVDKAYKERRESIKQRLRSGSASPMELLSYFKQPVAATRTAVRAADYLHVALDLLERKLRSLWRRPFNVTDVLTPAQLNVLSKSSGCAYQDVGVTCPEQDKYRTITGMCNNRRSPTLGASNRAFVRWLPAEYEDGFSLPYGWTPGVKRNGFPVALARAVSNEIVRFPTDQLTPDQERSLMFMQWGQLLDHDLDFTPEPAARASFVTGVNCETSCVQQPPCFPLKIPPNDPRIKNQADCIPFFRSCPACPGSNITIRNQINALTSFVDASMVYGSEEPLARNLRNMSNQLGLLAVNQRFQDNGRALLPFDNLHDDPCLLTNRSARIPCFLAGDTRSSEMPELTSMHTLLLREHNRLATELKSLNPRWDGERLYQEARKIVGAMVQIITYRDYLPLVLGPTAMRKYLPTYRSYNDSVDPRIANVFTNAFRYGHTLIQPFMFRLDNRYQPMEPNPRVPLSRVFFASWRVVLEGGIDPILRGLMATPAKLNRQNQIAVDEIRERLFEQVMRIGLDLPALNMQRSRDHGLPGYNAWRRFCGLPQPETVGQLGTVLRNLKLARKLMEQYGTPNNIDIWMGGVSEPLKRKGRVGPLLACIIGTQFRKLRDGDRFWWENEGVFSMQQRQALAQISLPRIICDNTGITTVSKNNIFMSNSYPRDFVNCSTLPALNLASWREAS

myeloperoxidase [2] = target: T1, myeloperoxidase; experiment: MPO Peroxidation Assay (Amplex Red Assay); type: biochemical; conditions: potency range class, read-out: Amplex Red Assay IC50 value

Nc1cc(C(CCC(=O)Cc2ccccc2)c2ccccc2)c2nn[nH]c2n1 (stereo not shown) [Example 233, 5-(5-amino-3H-[1,2,3]triazolo[4,5-b]pyridin-7-yl)-1,5-diphenylpentan-2-one]
IC50 (myeloperoxidase [1]): 0.101 to 0.999 µM | IC50 (myeloperoxidase [2]): 0.001 to 0.1 µM

Nc1cc(C(CCC(O)Cc2ccccc2)c2ccccc2)c2nn[nH]c2n1 (stereo not shown) [Example 234, 5-(5-amino-3H-[1,2,3]triazolo[4,5-b]pyridin-7-yl)-1,5-diphenylpentan-2-ol]
IC50 (myeloperoxidase [1]): 0.101 to 0.999 µM | IC50 (myeloperoxidase [2]): 0.101 to 0.999 µM

Nc1cc(C(CCC(N)Cc2ccccc2)c2ccccc2)c2nn[nH]c2n1 (stereo not shown) [Example 235, 7-(4-amino-1,5-diphenylpentyl)-3H-[1,2,3]triazolo[4,5-b]pyridin-5-amine]
IC50 (myeloperoxidase [1]): 0.101 to 0.999 µM | IC50 (myeloperoxidase [2]): 0.101 to 0.999 µM

Nc1cc(C(CCN[C@@H](CO)CCCc2ccccc2)c2ccccc2)c2nn[nH]c2n1 (stereo partly drawn) [Example 236, (R)-2-((3-(5-amino-3H-[1,2,3]triazolo[4,5-b]pyridin-7-yl)-3-phenylpropyl)amino)-5-phenylpentan-1-ol]
IC50 (myeloperoxidase [1]): 0.001 to 0.1 µM | IC50 (myeloperoxidase [2]): 1 to 10 µM

Nc1cc([C@H](CCO)c2ccccc2)c2nn[nH]c2n1 [Example 237, (R)-3-(5-amino-3H-[1,2,3]triazolo[4,5-b]pyridin-7-yl)-3-phenylpropan-1-ol]
IC50 (myeloperoxidase [1]): 0.101 to 0.999 µM | IC50 (myeloperoxidase [2]): 0.101 to 0.999 µM

Nc1cc([C@H](Cc2nc3cccc(-c4ccccc4)c3[nH]2)c2ccccc2)c2nn[nH]c2n1 [Example 238, (R)-7-(1-phenyl-2-(7-phenyl-1H-benzo[d]imidazol-2-yl)ethyl)-3H-[1,2,3]triazolo[4,5-b]pyridin-5-amine]
IC50 (myeloperoxidase [1]): 0.001 to 0.1 µM | IC50 (myeloperoxidase [2]): 0.101 to 0.999 µM

Nc1cc([C@H](Cc2nc3ccccc3s2)c2ccccc2)c2nn[nH]c2n1 [Example 239, (R)-7-(2-(benzo[d]thiazol-2-yl)-1-phenylethyl)-3H-[1,2,3]triazolo[4,5-b]pyridin-5-amine]
IC50 (myeloperoxidase [1]): 0.101 to 0.999 µM | IC50 (myeloperoxidase [2]): 0.001 to 0.1 µM

Nc1cc([C@H](Cc2nc3ccccc3o2)c2ccccc2)c2nn[nH]c2n1 [Example 240, (R)-7-(2-(benzo[d]oxazol-2-yl)-1-phenylethyl)-3H-[1,2,3]triazolo[4,5-b]pyridin-5-amine]
IC50 (myeloperoxidase [1]): 0.101 to 0.999 µM | IC50 (myeloperoxidase [2]): 0.101 to 0.999 µM

Nc1cc([C@H](Cc2nc3ccc(-c4ccccc4)cc3c(=O)[nH]2)c2ccccc2)c2nn[nH]c2n1 [Example 241]
IC50 (myeloperoxidase [1]): 0.001 to 0.1 µM | IC50 (myeloperoxidase [2]): 0.101 to 0.999 µM

Nc1cc([C@H](Cc2nc3ccc(-c4ccccc4)cc3s2)c2ccccc2)c2nn[nH]c2n1 [Example 242, (R)-7-(1-phenyl-2-(6-phenylbenzo[d]thiazol-2-yl)ethyl)-3H-[1,2,3]triazolo [4,5-b]pyridin-5-amine]
IC50 (myeloperoxidase [1]): 0.001 to 0.1 µM | IC50 (myeloperoxidase [2]): 0.001 to 0.1 µM

CN(C)C(=O)c1cccc(-c2cccc3[nH]c(C[C@H](c4ccccc4)c4cc(N)nc5[nH]nnc45)nc23)c1 [Example 243, (R)-3-(2-(2-(5-amino-3H-[1,2,3]triazolo [4,5-b]pyridin-7-yl)-2-phenylethyl)-1H-benzo[d]imidazol-4-yl)-N,N-dimethylbenzamide]
IC50 (myeloperoxidase [1]): 0.001 to 0.1 µM | IC50 (myeloperoxidase [2]): 0.101 to 0.999 µM

Nc1cc([C@H](Cc2nc3c(-c4ccccc4)cc(Cl)cc3[nH]2)c2ccccc2)c2nn[nH]c2n1 [Example 244, (R)-7-(2-(6-chloro-4-phenyl-1H-benzo[d]imidazol-2-yl)-1-phenylethyl)-3H-[1,2,3]triazolo[4,5-b]pyridin-5-amine]
IC50 (myeloperoxidase [1]): 0.001 to 0.1 µM | IC50 (myeloperoxidase [2]): 0.101 to 0.999 µM

NC(=O)c1cccc(-c2cccc3[nH]c(C[C@H](c4ccccc4)c4cc(N)nc5[nH]nnc45)nc23)c1 [Example 245, (R)-3-(2-(2-(5-amino-3H-[1,2,3]triazolo [4,5-b]pyridin-7-yl)-2-phenylethyl)-1H-benzo[d]imidazol-4-yl)benzamide]
IC50 (myeloperoxidase [1]): 0.001 to 0.1 µM | IC50 (myeloperoxidase [2]): 0.101 to 0.999 µM

Nc1cc([C@H](Cc2nc3c(-c4ccccc4)c(F)c(F)cc3[nH]2)c2ccccc2)c2nn[nH]c2n1 [Example 246, (R)-7-(2-(5,6-difluoro-4-phenyl-1H-benzo [d]imidazol-2-yl)-1-phenylethyl)-3H-[1,2,3]triazolo[4,5-b] pyridin-5-amine]
IC50 (myeloperoxidase [1]): 0.001 to 0.1 µM | IC50 (myeloperoxidase [2]): 0.101 to 0.999 µM

Nc1cc([C@H](Cc2nc3c(-c4cccc(Cl)c4)cccc3[nH]2)c2ccccc2)c2nn[nH]c2n1 [Example 247, (R)-7-(2-(4-(3-chlorophenyl)-1H-benzo[d]imidazol-2-yl)-1-phenylethyl)-3H-[1,2,3]triazolo [4,5-b]pyridin-5-amine]
IC50 (myeloperoxidase [1]): 0.001 to 0.1 µM | IC50 (myeloperoxidase [2]): 0.101 to 0.999 µM

Nc1cc([C@H](Cc2nc3c(-c4ccccc4)cc(C(F)(F)F)cc3[nH]2)c2ccccc2)c2nn[nH]c2n1 [Example 248, (R)-7-(1-phenyl-2-(4-phenyl-6-(trifluoromethyl)-1H-benzo [d]imidazol-2-yl)ethyl)-3H-[1,2,3] triazolo[4,5-b] pyridin-5-amine]
IC50 (myeloperoxidase [1]): 0.001 to 0.1 µM | IC50 (myeloperoxidase [2]): 0.101 to 0.999 µM

NC(=O)c1ccc(-c2cccc3[nH]c(C[C@H](c4ccccc4)c4cc(N)nc5[nH]nnc45)nc23)cc1 [Example 249, (R)-4-(2-(2-(5-amino-3H-[1,2,3]triazolo [4,5-b]pyridin-7-yl)-2-phenylethyl)-1H-benzo[d]imidazol-4-yl)benzamide]
IC50 (myeloperoxidase [1]): 0.001 to 0.1 µM | IC50 (myeloperoxidase [2]): 0.101 to 0.999 µM

Nc1cc([C@H](Cc2nc3ccc(-c4ccc(Cl)cc4)cc3[nH]2)c2ccccc2)c2nn[nH]c2n1 [Example 250]
IC50 (myeloperoxidase [1]): 0.001 to 0.1 µM | IC50 (myeloperoxidase [2]): 0.101 to 0.999 µM

Nc1cc([C@H](Cc2nc3c(-c4cccc(C5CC5)c4)cccc3[nH]2)c2ccccc2)c2nn[nH]c2n1 [Example 251, (R)-7-(2-(4-(3-cyclopropylphenyl)-1H-benzo[d]imidazol-2-yl)-1-phenylethyl)-3H-[1,2,3]triazolo [4,5-b]pyridin-5-amine]
IC50 (myeloperoxidase [1]): 0.001 to 0.1 µM | IC50 (myeloperoxidase [2]): 1 to 10 µM

N#Cc1cccc(-c2cccc3[nH]c(C[C@H](c4ccccc4)c4cc(N)nc5[nH]nnc45)nc23)c1 [Example 252, (R)-3-(2-(2-(5-amino-3H-[1,2,3]triazolo [4,5-b]pyridin-7-yl)-2-phenylethyl)-1H-benzo[d]imidazol-4-yl)benzonitrile]
IC50 (myeloperoxidase [1]): 0.001 to 0.1 µM | IC50 (myeloperoxidase [2]): 1 to 10 µM

Nc1cc([C@H](Cc2nc3c(-c4ccc(Cl)cc4)cccc3[nH]2)c2ccccc2)c2nn[nH]c2n1 [Example 253, (R)-7-(2-(4-(4-chlorophenyl)-1H-benzo[d]imidazol-2-yl)-1-phenylethyl)-3H-[1,2,3]triazolo [4,5-b] pyridin-5-amine]
IC50 (myeloperoxidase [1]): 0.001 to 0.1 µM | IC50 (myeloperoxidase [2]): 1 to 10 µM

N#Cc1cc(-c2ccccc2)c2nc(C[C@H](c3ccccc3)c3cc(N)nc4[nH]nnc34)[nH]c2c1 [Example 254, (R)-2-(2-(5-amino-3H-[1,2,3]triazolo [4,5-b]pyridin-7-yl)-2-phenylethyl)-4-phenyl-1H-benzo[d]imidazole-6-carbonitrile]
IC50 (myeloperoxidase [1]): 0.001 to 0.1 µM | IC50 (myeloperoxidase [2]): 1 to 10 µM

N#Cc1ccc(-c2ccc3nc(C[C@H](c4ccccc4)c4cc(N)nc5[nH]nnc45)[nH]c3c2)cc1 [Example 255, (R)-4-(2-(2-(5-amino-3H-[1,2,3]triazolo[4,5-b]pyridin-7-yl)-2-phenylethyl)-1H-benzo[d]imidazol-6-yl)benzonitrile]
IC50 (myeloperoxidase [1]): 0.001 to 0.1 µM | IC50 (myeloperoxidase [2]): 1 to 10 µM

Nc1cc([C@H](Cc2nc3ccc(-c4ccccc4)cc3[nH]2)c2ccccc2)c2nn[nH]c2n1 [Example 256, (R)-7-(1-phenyl-2-(6-phenyl-1H-benzo[d]imidazol-2-yl)ethyl)-3H-[1,2,3]triazolo [4,5-b]pyridin-5-amine]
IC50 (myeloperoxidase [1]): 0.101 to 0.999 µM | IC50 (myeloperoxidase [2]): 0.101 to 0.999 µM

Cn1c(C[C@H](c2ccccc2)c2cc(N)nc3[nH]nnc23)nc2ccc(-c3ccccc3)cc21 [Example 257, (R)-7-(2-(1-methyl-6-phenyl-1H-benzo[d]imidazol-2-yl)-1-phenylethyl)-3H-[1,2,3]triazolo[4,5-b] pyridin-5-amine]
IC50 (myeloperoxidase [1]): 0.101 to 0.999 µM | IC50 (myeloperoxidase [2]): 1 to 10 µM

Cn1c(C[C@H](c2ccccc2)c2cc(N)nc3[nH]nnc23)nc2cc(-c3ccccc3)ccc21 [Example 258, (R)-7-(2-(1-methyl-5-phenyl-1H-benzo[d]imidazol-2-yl)-1-phenylethyl)-3H-[1,2,3]triazolo[4,5-b] pyridin-5-amine]
IC50 (myeloperoxidase [1]): 0.101 to 0.999 µM | IC50 (myeloperoxidase [2]): 1 to 10 µM

Nc1cc([C@H](Cc2nc3cc(F)c(-c4ccccc4)cc3[nH]2)c2ccccc2)c2nn[nH]c2n1 [Example 259, (R)-7-(2-(5-fluoro-6-phenyl-1H-benzo[d]imidazol-2-yl)-1-phenylethyl)-3H-[1,2,3]triazolo[4,5-b] pyridin-5-amine]
IC50 (myeloperoxidase [1]): 0.101 to 0.999 µM | IC50 (myeloperoxidase [2]): 0.101 to 0.999 µM

Nc1cc([C@H](Cc2nc3c(-c4ccccc4Cl)cccc3[nH]2)c2ccccc2)c2nn[nH]c2n1 [Example 260, (R)-7-(2-(4-(2-chlorophenyl)-1H-benzo[d]imidazol-2-yl)-1-phenylethyl)-3H-[1,2,3]triazolo [4,5-b]pyridin-5-amine]
IC50 (myeloperoxidase [1]): 0.101 to 0.999 µM | IC50 (myeloperoxidase [2]): 1 to 10 µM

Nc1cc([C@H](Cc2nc3ccccc3[nH]2)c2ccccc2)c2nn[nH]c2n1 [Example 261, (R)-7-(2-(1H-benzo [d]imidazol-2-yl)-1-phenylethyl)-3H-[1,2,3]triazolo[4,5-b] pyridin-5-amine]
IC50 (myeloperoxidase [1]): 1 to 10 µM | IC50 (myeloperoxidase [2]): 0.101 to 0.999 µM
